The subject of one series is human platelets. Kind of series: Inhibition of U46619-induced human platelet aggregation. The series is classed as cell-based. Particulars: for IC50: Homo sapiens, Platelet, 1 min. On the procedure: Platelet rich plasma was prepared from four healthy, normal volunteers using standard techniques.
Platelets were aggregated with U46619 (0.5 to 1.0 μM) to produce an
average % aggregation at one minute of 61.3 ± 3.1. The ID50 value
were calculated based on the inhibition of U46619 induced aggregation one
minute after its addition.
Platelets were aggregated with U46619 (0.09 to 0.65 μM) to produce an
average % aggregation at one minute of 47 ± 3. The ID50 values
The potency of PTA-OH and PTA-OM for antagonism of U46619 induced human platelet aggregation was determined as described above.

A further series has as its system endotoxic shock. Kind of series: Protection against endotoxic shock (Salmonella endotoxin). It is filed as in vivo, young male Long-Evans rats. From the text:
Based on the protective biological response observed and the absence of change in plasma thromboxane levels, it is concluded that trans-13 APT is a thromboxane receptor antagonist.

Series [1] concerns platelet aggregation. To be noted: 13-APA itself, stated as background for comparison; cited from earlier work.
A short description of another series: Solubility. The series is classed as physicochemical.
The subject of series [2] is platelet aggregation. Kind of series: U46619 and arachidonic acid-induced platelet aggregation. It is filed as cell-based, human. As to the method: Compound A was prepared in a manner analogous to 13 APA itself, i.e., by borohydride reduction of the Schiff base obtained from the reaction of tyramine and ethyl-2-oxo-cyclopentane-heptanoate. This reaction produces about equal amounts of the cis and trans ethyl esters, which were separated on preparative silica gel TLC and subsequently hydrolyzed to the free acids by refluxing in aqueous NaOH.

In the next series the test system is canine saphenous veins. Description: Antagonism of vascular smooth muscle contraction in canine saphenous veins. It is filed as cell-based.
The mark [3] stands for this setting: Table I, U46619 0.5 to 1.0 μM, average % aggregation at one minute 61.3 ± 3.1, indomethacin 10 μM, one minute preincubation, platelet rich plasma, read-out: ID50 (the source's name).
Where [4] appears, read: Table 2, U46619 0.09 to 0.65 μM, average % aggregation at one minute 47 ± 3, indomethacin 10 μM, one minute preincubation, read-out: ID50 (the source's name).
Setting [5] is: 30 mg/kg i.p., vs vehicle pretreated animals.
Setting [6] is: pinane analogs, determined as described above, read-out: ID50 (antagonism of U46619 induced human platelet aggregation).

Results on twelve compounds are retold here after patent US4695647A, “Aromatic derivatives of 13-azaprostanoic acid” (Drug Science Foundation, priority 1984, dated 1987).

Entries after “also recorded” stand apart in the source; their conditions may differ. Where two headings read alike, the source gives them in different places.

With `CCCCCCCN[C@H]1CCC[C@H]1CCCCCCC(=O)O` (relative stereo) [13-cis-azaprostanoic acid, reference compound], in the series on human platelets (setting [3]), the IC50 amounted to 14.8 ± 2.2 µM.
Take `O=C(O)CCCCCC[C@H]1CCC[C@H]1NCC(O)c1ccc(O)c(I)c1` (relative stereo) [13-cis-iodo APO]: the IC50 with human platelets (setting [4]) amounted to 9.8 ± 1.3 µM.
Regarding `CCCCCCCN[C@@H]1CCC[C@H]1CCCCCCC(=O)O` (relative stereo) [13-trans-azaprostanoic acid, reference compound], in the series with human platelets (setting [3]), the IC50 was 13.6 ± 1.9 µM.
Still for that read-out and setting: then `O=C(O)CCCCCC[C@@H]1CCC[C@@H]1NCCc1ccc(O)cc1` (relative stereo) [Compound 13-cis-APT, 7-(2-p-hydroxphenethylamino-cyclopentyl)-heptanoic acid], with 17.6 ± 4.4 µM.
As to `O=C(O)CCCCCC[C@@H]1CCC[C@H]1NCCc1ccc(O)cc1` (relative stereo) [Compound 13-trans-APT, 7-(2-p-hydroxphenethylamino-cyclopentyl)-heptanoic acid], the IC50 in the series with human platelets (setting [3]) turned out to be 9.9 ± 1.7 µM. Moreover, the “plasma thromboxane B2 levels” value with endotoxic shock (30 mg/kg i.p., 30 minutes and four hours after endotoxin, vs vehicle) is “elevated to the same degree”. Moreover, in the series on endotoxic shock (setting [5]), the 6-keto-PGF1α levels result was “significantly lower”; the “endotoxic shock as measured by hypoglycemia, thrombocytopenia and tissue infarct effects” value is given as “less subject to endotoxic shock”. The “protection against endotoxic shock” value in the series on endotoxic shock (30 mg/kg, intraperitoneal pretreatment, endotoxin intravenously) is recorded as “protected against endotoxic shock”. Also, in the series with endotoxic shock (30 mg/kg, rats), the “protection against pathophysiologic sequelae of S. enteritidis endotoxemia” value is reported as “effective in protecting rats”.
As to `CCCCCCCN[C@H]1CCC[C@@H]1CCCCCCC(=O)O` [Compound 13-APA, 13-Azaprostanoic acid], the “relative potency of isomers” value with platelet aggregation [1] is “much more potent as the trans form”.
For `O=C(O)CCCCCC[C@@H]1CCC[C@@H]1NCC(O)c1ccc(O)cc1` (stereo partly drawn) [Compound 13-cis-APO, 7-(2-p-hydroxyphenylethanolamino-cyclopentyl)-heptanoic acid], the IC50 in the series with human platelets (setting [4]) came out at 6.4 ± 0.7 µM; in the series on human platelets (setting [3]), 16 ± 3.2 µM.
`O=C(O)CCCCCC[C@@H]1CCC[C@H]1NCC(O)c1ccc(O)cc1` (stereo partly drawn) [Compound 13-trans-APO, 7-(2-p-hydroxyphenylethanolamino-cyclopentyl)-heptanoic acid]: the solubility in ethanol entry in the series “Solubility” is “practically insoluble”. Further, in the series on human platelets (setting [3]), the IC50 was 8.3 ± 1.4 µM.
`O=C(O)CCCCCCC1CCCC1NCCc1ccc(O)cc1` (stereo not drawn) [Compound A, 7-(2-p-hydroxyphenethylamino-cyclopenthyl)-heptanoic acid]: the “activity and relative potency of isomers in platelet aggregation” value in the series on platelet aggregation [2] was “the two isomers were active, with the trans more potent than the cis; also recorded: significantly more potent than the parent 13-APA”.
As for `CC1(C)C2CC(NCC(O)Cc3ccc(O)cc3)C(C/C=C\CCCC(=O)O)C1C2` (stereo not drawn) [PTA-OH, 13-aza-16-(p-hydroxyphenyl) pinane TxA2], the “relative potency as inhibitor of human platelet aggregation” value with human platelets was “more potent than 13-aza-16-(p-methoxyphenyl) pinane TxA2 (PTA-OM)”. Moreover, in the series with human platelets (setting [6]), the IC50 was determined as 0.52 ± 0.07 µM.
As to `COc1ccc(CC(O)CNC2CC3CC(C2C/C=C\CCCC(=O)O)C3(C)C)cc1` (stereo not drawn) [PTA-OM, 13-aza-16-(p-methoxyphenyl) pinane TxA2], in the series with canine saphenous veins, the “relative potency as antagonist of vascular smooth muscle contraction” value was “more potent than PTA-OH”. Further, the IC50 in the series with human platelets (setting [6]) worked out at 1.56 ± 0.35 µM.
Take `CC1(C)C2CC(NCC(O)Cc3ccc(O)c(I)c3)C(C/C=C\CCCC(=O)O)C1C2` (stereo not drawn) [^127 I-PTA-OH]: in the series on human platelets (setting [6]), the IC50 was determined as 0.38 ± 0.05 µM.
